Values after ≈ are worked out from the molar mass of the structure shown.

One experiment deals with S. aureus B9. In words: microbe, parasite or virus in culture. Particulars: for MIC: Staphylococcus aureus, B9, read-out: MIC against S. aureus B9. An excerpt:
(§1) The strains of E. coli ATCC 25922 and S. aureus ATCC 25923 were purchased from the American Type Culture Collection (ATCC, Manassas, VA, United States). The strains of E. coli W13, E. coli IF4, E. coli 2, and E. coli 17 were individually isolated from the livers of diseased chickens infected by E. coli. The strains of S. aureus B5, S. aureus B9, S. aureus B54, and S. aureus B63 were individually isolated from the milk of cows with mastitis. These clinical isolates were all identified by the VITEK-32 system (bioMérieux, France) and PCR amplification sequencing.
(§2) MICs of OaBac5mini, amoxicillin, kanamycin, florfenicol and tetracycline were determined using the two-fold broth microdilution method according to the Clinical and Laboratory Standards Institute (CLSI) guidance ([21]). MIC values of the tested antibacterial agents were determined on three independent occasions. Escherichia coli ATCC 25922 was used as the quality control in all the susceptibility tests.

A further experiment concerns E. coli IF4. Put plainly: microbe, parasite or virus in culture. Conditions: for MIC: Escherichia coli, IF4, read-out: MIC against E. coli IF4.
Text: as §1, §2

A further experiment has as its system E. coli 2. In words: microbe, parasite or virus in culture. Particulars: for MIC: Escherichia coli, 2, read-out: MIC against E. coli 2.
Text: as §1, §2

Another experiment deals with E. coli W13. Put plainly: microbe, parasite or virus in culture. Conditions: for MIC: Escherichia coli, W13, read-out: MIC against E. coli W13.
Text: as §1, §2

In another experiment the test system is S. aureus B5. Put plainly: microbe, parasite or virus in culture. Particulars: for MIC: Staphylococcus aureus, B5, read-out: MIC against S. aureus B5.
Text: as §1, §2

The next experiment deals with S. aureus B54. In words: microbe, parasite or virus in culture. Conditions: for MIC: Staphylococcus aureus, B54, read-out: MIC against S. aureus B54.
Text: as §1, §2

In a further experiment the test system is E. coli 17. In words: microbe, parasite or virus in culture. Particulars: for MIC: Escherichia coli, 17, read-out: MIC against E. coli 17.
Text: as §1, §2

In another experiment the test system is S. aureus B63. Put plainly: microbe, parasite or virus in culture. Conditions: for MIC: Staphylococcus aureus, B63, read-out: MIC against S. aureus B63.
Text: as §1, §2

The subject of the next experiment is E. coli ATCC 25922. Put plainly: microbe, parasite or virus in culture. Particulars: for MIC: Escherichia coli, ATCC25922, read-out: MIC against E. coli ATCC 25922. Here is the method: as §2
A further experiment relates to S. aureus ATCC 25923. In words: microbe, parasite or virus in culture. Particulars: for MIC: Staphylococcus aureus, ATCC25923, read-out: MIC against S. aureus ATCC 25923. As to the method: as §2
The subject of the next experiment is E. coli ATCC 25922 ΔsbmA. Conditions: two-fold broth microdilution, CLSI; three independent occasions; sbmA deletion mutant. Here is the method: The method described by Datsenko and Wanner was used for chromosomal gene deletion ([20]). […] The PCR fragment (1,567 bp) was purified, digested with DpnI, repurified and transferred into E. coli ATCC 25922 by electroporation, in which the Red recombinase expression plasmid pKD46 was previously transformed and induced by L-arabinose. Transformants were selected on Luria-Bertani (LB) agar containing 50 μg/ml of kanamycin at 37°C. The inserted sequence was amplified from the kanamycin-resistant strains by using the primers SBMF: 5′-[…]-3′ and SBMR: 5′-[…]-3′ which is located outside of inactivated gene. The length of the PCR product of sbmA using the primers set SBMF and SBMR in E. coli ATCC 25922 is 1,404 bp. When sbmA is successfully inactivated, the PCR product (2,198 bp) was amplified and sequenced for the verification of the gene deletion.
as §2
Background: In broth dilution the organism is exposed to a series of concentrations in liquid medium.

[1] abbreviates: two-fold broth microdilution, CLSI, three independent occasions, isolate from milk of cows with mastitis.
[2] abbreviates: two-fold broth microdilution, CLSI, three independent occasions, isolate from diseased chicken liver.
[3] abbreviates: two-fold broth microdilution, CLSI, three independent occasions.

Turning to `NC[C@H]1O[C@H](O[C@H]2[C@H](O)[C@@H](O[C@H]3O[C@H](CO)[C@@H](O)[C@H](N)[C@H]3O)[C@H](N)C[C@@H]2N)[C@H](O)[C@@H](O)[C@@H]1O` [KAN, kanamycin], the “MIC against S. aureus B9” value against S. aureus B9 (setting [1]) is 186.67 mg/L (≈ 385 µM). The “MIC against E. coli IF4” value in the experiment with E. coli IF4 (setting [2]) is >640 mg/L. Also, the “MIC against E. coli 2” value against E. coli 2 (setting [2]) was >640 mg/L. In addition, the “MIC against E. coli W13” value against E. coli W13 (setting [2]) came out at 320 mg/L (≈ 660 µM). In the experiment with S. aureus B5 (setting [1]), the “MIC against S. aureus B5” value came to 40 mg/L (≈ 82.6 µM). The “MIC against S. aureus B54” value against S. aureus B54 (setting [1]) came to 5.83 mg/L (≈ 12 µM). Moreover, the “MIC against E. coli 17” value in the experiment on E. coli 17 (setting [2]) stood at 320 mg/L (≈ 660 µM). For the same compound, in the experiment with S. aureus B63 (setting [1]), the “MIC against S. aureus B63” value was found to be 1.25 mg/L (≈ 2.58 µM). In addition, in the experiment on E. coli ATCC 25922 (setting [3]), the “MIC against E. coli ATCC 25922” value is 4 mg/L (≈ 8.26 µM). For the same compound, in the experiment with S. aureus ATCC 25923 (setting [3]), the “MIC against S. aureus ATCC 25923” value was determined as 4 mg/L (≈ 8.26 µM).
`CC1(C)S[C@@H]2[C@H](NC(=O)[C@H](N)c3ccc(O)cc3)C(=O)N2[C@H]1C(=O)O` [AMO, amoxicillin]: the “MIC against E. coli ATCC 25922 ΔsbmA” value in the experiment on E. coli ATCC 25922 ΔsbmA was determined as 8 mg/L (≈ 21.9 µM). The MIC in the experiment with S. aureus B9 is 3.33 mg/L (≈ 9.11 µM); with E. coli IF4 it was > 640 mg/L; in the experiment on E. coli 2, > 640 mg/L; in the experiment with E. coli W13, > 640 mg/L; in the experiment on S. aureus B5, 427 mg/L (≈ 1170 µM); in the experiment with S. aureus B54 it was 3.33 mg/L (≈ 9.11 µM). In addition, the MIC in the experiment with E. coli 17 was > 640 mg/L; in the experiment on S. aureus B63 it was 2.08 mg/L (≈ 5.69 µM); with E. coli ATCC 25922, 8 mg/L (≈ 21.9 µM); with S. aureus ATCC 25923 it was 0.67 mg/L (≈ 1.83 µM).
With `CN(C)[C@@H]1C(O)=C(C(N)=O)C(=O)[C@@]2(O)C(O)=C3C(=O)c4c(O)cccc4[C@@](C)(O)[C@H]3C[C@@H]12` [TET, tetracycline], the “MIC against E. coli ATCC 25922 ΔsbmA” value against E. coli ATCC 25922 ΔsbmA came out at 1.67 mg/L (≈ 3.76 µM). Also, the MIC in the experiment with S. aureus B9 turned out to be 80 mg/L (≈ 180 µM); in the experiment on E. coli IF4, 133 mg/L (≈ 300 µM); in the experiment with E. coli 2, 1 mg/L (≈ 2.25 µM); with E. coli W13 it was 160 mg/L (≈ 360 µM); in the experiment with S. aureus B5, 0.08 mg/L (≈ 0.18 µM); in the experiment with S. aureus B54 it was 66.7 mg/L (≈ 150 µM). The MIC turned out to be 160 mg/L (≈ 360 µM) in the experiment on E. coli 17, 0.42 mg/L (≈ 0.945 µM) in the experiment on S. aureus B63, 2 mg/L (≈ 4.5 µM) in the experiment with E. coli ATCC 25922 and 1 mg/L (≈ 2.25 µM) in the experiment with S. aureus ATCC 25923.
As to `CS(=O)(=O)c1ccc([C@@H](O)[C@@H](CF)NC(=O)C(Cl)Cl)cc1` [FLO, florfenicol], in the experiment on E. coli ATCC 25922 ΔsbmA, the “MIC against E. coli ATCC 25922 ΔsbmA” value was 5.3 mg/L (≈ 14.8 µM). Moreover, the MIC came out at 1.67 mg/L (≈ 4.66 µM) in the experiment on S. aureus B9; 80 mg/L (≈ 223 µM) in the experiment on E. coli IF4; 267 mg/L (≈ 744 µM) in the experiment with E. coli 2; 320 mg/L (≈ 893 µM) in the experiment on E. coli W13; 4.17 mg/L (≈ 11.6 µM) in the experiment on S. aureus B5; 2.5 mg/L (≈ 6.98 µM) with S. aureus B54. For the same compound, the MIC was 80 mg/L (≈ 223 µM) in the experiment on E. coli 17, 1.04 mg/L (≈ 2.9 µM) in the experiment with S. aureus B63, 4 mg/L (≈ 11.2 µM) in the experiment with E. coli ATCC 25922 and 16 mg/L (≈ 44.7 µM) in the experiment with S. aureus ATCC 25923.

The values above are taken from publication PMC9995905, “Characteristics of antimicrobial peptide OaBac5mini and its bactericidal mechanism against Escherichia coli” (Frontiers in Veterinary Science, 2023).
